ChEMBL document CHEMBL1139221, “2-(4-Chlorobenzyl)-3-hydroxy-7,8,9,10-tetrahydrobenzo[H]quinoline-4-carboxylic acid (PSI-697): identification of a clinical candidate from the quinoline salicylic acid series of P-selectin antagonists” (J Med Chem, 2007)
Values after ≈ are worked out from the molar mass of the structure shown.

Key:
[1] = biological target: T1, P-selectin (Homo sapiens, UniProt P16109); test: Inhibition of P-Selectin by Biacore assay
T1 sequence (P16109 whole entry): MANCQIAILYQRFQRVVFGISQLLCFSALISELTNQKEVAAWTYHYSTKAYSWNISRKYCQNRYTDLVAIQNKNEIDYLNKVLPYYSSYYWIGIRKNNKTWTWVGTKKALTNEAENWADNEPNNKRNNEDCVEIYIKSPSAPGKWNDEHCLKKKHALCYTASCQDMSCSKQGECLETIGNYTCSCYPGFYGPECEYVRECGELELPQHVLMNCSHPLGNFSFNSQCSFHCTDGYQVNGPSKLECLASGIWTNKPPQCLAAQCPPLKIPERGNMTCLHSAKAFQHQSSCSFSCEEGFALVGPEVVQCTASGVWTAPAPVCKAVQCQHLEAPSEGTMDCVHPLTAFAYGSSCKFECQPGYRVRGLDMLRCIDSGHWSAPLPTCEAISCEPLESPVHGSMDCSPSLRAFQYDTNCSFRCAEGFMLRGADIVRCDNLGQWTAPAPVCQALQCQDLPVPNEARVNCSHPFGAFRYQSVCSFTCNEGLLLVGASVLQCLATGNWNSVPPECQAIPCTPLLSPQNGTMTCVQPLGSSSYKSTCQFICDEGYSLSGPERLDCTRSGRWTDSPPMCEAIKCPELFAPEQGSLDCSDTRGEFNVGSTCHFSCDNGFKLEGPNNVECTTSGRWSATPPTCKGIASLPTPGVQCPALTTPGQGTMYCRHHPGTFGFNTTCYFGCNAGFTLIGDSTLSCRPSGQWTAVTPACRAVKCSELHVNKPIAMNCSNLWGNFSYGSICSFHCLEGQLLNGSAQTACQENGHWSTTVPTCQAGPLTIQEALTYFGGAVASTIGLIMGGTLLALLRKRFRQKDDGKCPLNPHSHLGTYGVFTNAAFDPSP

[2] = organism: Rattus norvegicus; test: AUC in Sprague-Dawley rat; format: ADME, organism-based, Plasma; settings: in vivo
[3] = organism: Mus musculus; test: AUC in C57 mouse; format: ADME, organism-based, Plasma; settings: in vivo
[4] = Bioavailability in C57 mouse; format: ADME, organism-based; settings: in vivo
[5] = Bioavailability in Sprague-Dawley rat; format: ADME, organism-based; settings: in vivo
[6] = Inhibition of leukocyte rolling in mouse at 50 mg/kg, po; format: functional
[7] = Solubility at pH 7.4; format: physicochemical; settings: buffer
[8] = Oral bioavailability in Beagle dog at 15 mg/kg; format: ADME, organism-based, Canis lupus familiaris; settings: in vivo
[9] = test system: Rattus norvegicus; test: Inhibition of neointimal hyperplasia in Sprague-Dawley rat carotid ballon injury model at 30 mg/kg, po; format: functional
[10] = test system: Mus musculus; test: Inhibition of aortic lesion in apo E -/- mouse model at 100 mg/kg; format: functional; settings: Aorta
[11] = Stability in rat liver microsome; format: ADME; settings: liver microsomes

Row | SMILES | IC50 [1] [µM] | AUC/dose [2] [µg·h/mL] | AUC/dose [3] [µg·h/mL] | bioavailability [4] [%] | bioavailability [5] [%] | inhibition in vivo at 50 mg/kg [6] [%] | solubility [7] [µg/mL] | bioavailability [8] [%] | inhibition in vivo at 30 mg/kg [9] [%] | inhibition in vivo at 100 mg/kg [10] [%] | half-life [11] [min]
1 | O=C(O)c1c(O)c(Cc2c[nH]c3ccccc23)nc2c3c(ccc12)CCCC3 | 225 | 0.607 | 0.218 | 30 | 41 | 62 | – | – | – | – | –
2 | O=C(O)c1c(O)c(Cc2c[nH]c3ccc(Cl)cc23)nc2c3c(ccc12)CCCC3 | 175 | 0.096 | – | – | 5 | – | 20 (≈ 49.2 µM) | – | – | – | –
3 | O=C(O)c1c(O)c(Cc2ccc(Cl)cc2)nc2c3c(ccc12)CCCC3 [PSI-697] | 125 | 0.62 | 1.5 | 100 | 20 | 56 | – | 58 | 40 | 49 | –
4 | O=C(O)c1c(O)c(Cc2c[nH]c3ccc(Cl)cc23)nc2c(C(F)(F)F)cccc12 | 250 | – | – | – | – | 23 | – | – | – | – | –
5 | O=C(O)c1c(O)c(Cc2ccccc2Cl)nc2c3c(ccc12)CCCC3 | 123 | – | – | – | – | – | – | – | – | – | 6
6 | O=C(O)c1c(O)c(Cc2cccc(Cl)c2)nc2c3c(ccc12)CCCC3 | 138 | – | – | – | – | – | – | – | – | – | 6
